# Test results reported in patent US11389449B2, “Treatment of metabolic syndrome with an sGC stimulator” (Cyclerion Therapeutics, Inc., priority 2017, dated 2022).
# What was measured:
# ZSF1 obese rats [1] = assay: Oral glucose tolerance test (OGTT) and fasting glucose in ZSF1 rats at week 10; type: in vivo, rat; settings: enalapril 3 mpk
# Protocol: Male ZSF1 rats (body weight 400-430 grams (lean control) and 500-605 grams (obese) at baseline) were used for this study. All animals were housed in a room under controlled conditions of temperature (72±8° F.), relative humidity of 30-70% and a 12-hour light-dark cycle (lights on at 6:00 AM and off at 6:00 PM) at a fully AAALAC accredited, USDA registered and OLAW assured laboratory animal research facility. All animals were allowed free access to rodent chow (Purina 5008+/−test articles) and water (+/−enalapril).
# (§1) Blood and 24-hour urine samples were obtained from all animals at day 0 (15 weeks of age; prior to the initiation of enalapril treatment). Animals in Groups 3, 7, 8 and 9 were placed on drinking water containing enalapril and kept on Purina 5008 rodent chow (C13000). Animals in Group 1, 2, 4, 5 and 6 were kept on Purina 5008 rodent chow and drinking water. Ten days after the initiation of enalapril treatment, blood and 24-hour urine samples were collected from all animals. After day 10 blood and urine collections, animals in Groups 4, 5 and 6 received Compound I at 1, 3 and 10 mg/kg/day, respectively for 11 weeks. In addition to enalapril treatment, animals in Groups 7, 8 and 9 received Compound I at 1, 3 and 10 mg/kg/day, respectively for an additional 11 weeks.
# (§2) 10 weeks after the initiation of Compound I treatment, animals (27 weeks of age) were fasted for 18 hours. Serum samples were collected for the measurement of fasting insulin levels. Serum insulin levels were determined using the Rat Insulin ELISA kit (Cat #ELR-Insulin, RayBiotech, Inc.)
# For OGTT, animals were given glucose solution (50% Dextrose) at 2 g/kg via oral gavage. Blood samples were collected prior to oral glucose administration (0 minute) and 30, 60, 90, 120 and 180 minutes after administration. Blood glucose levels were measured using a standard blood glucose monitoring system (AlphaTRAK). The blood glucose reading at time 0 (prior to glucose administration) corresponds to the fasting glucose measurement.
# (§3) The data are expressed as mean±SEM. […] One-tailed tests were used for comparison of variables. Statistical significance is indicated by P values less than 0.05.
# ZSF1 obese rats [2] = assay: Fasting serum insulin in ZSF1 rats (Rat Insulin ELISA); type: in vivo; settings: week 10, enalapril 3 mpk
# From the text: as §1, §2, §3
# ZSF1 obese rats [3] = assay: ZSF1 rat study: serum clinical chemistry (cholesterol, triglycerides), body weight, clinical observations; type: in vivo; settings: ZSF1 obese rats; enalapril 3 mg/kg/day; Animal #8; 3 days after initiation
# From the text: as §1
# Body weight and 24-hour water intake were obtained at least once every other week. 24-hour food intake was measured at baseline and week 8.
# Plasma (for biomarker) and serum (for clinical chemistry analysis) samples were collected from all treatment groups at baseline, day 10, weeks 5 and 9 prior to placing the animals into the metabolic cages. Plasma samples were obtained from Groups 3-9 for measurement of compound exposure levels at weeks 5 and 11. Terminal plasma and serum samples were obtained at necropsy.
# For serum samples, blood was collected in serum separator tubes, maintained at room temperature for at least 30 minutes and then centrifuged at 6000 rpm for 10 minutes. Serum samples were stored at −80° C. until analysis. Urine and serum samples were analyzed using the Randox Daytona Clinical Chemistry Analyzer. All measurements were performed in accordance with manufacturer's instructions.
# Animal #8 (in Group 3, ZSF1—enalapril 3 mg/kg/day) was found dead 3 days after the initiation of enalapril treatment.
compound,measurement,setting,value
"CCOC(=O)[C@H](CCc1ccccc1)N[C@@H](C)C(=O)N1CCC[C@H]1C(=O)O [enalapril, reference compound]",Fasting Blood Glucose (0 minute),ZSF1 obese rats [1],255 ± 13 mg/dL
same,OGTT Area Under Curve (AUC),ZSF1 obese rats [1],84459 ± 1409
same,OGTT Blood Glucose 120 minutes,ZSF1 obese rats [1],452 ± 10 mg/dL
same,OGTT Blood Glucose 180 minutes,ZSF1 obese rats [1],435 ± 9 mg/dL
same,Fasting Insulin,ZSF1 obese rats [2],11.4 ± 1.7 μIU/mL
same,clinical observation,ZSF1 obese rats [3],found dead
